Source: article PMC4201456, “Cytoxicity and Apoptotic Mechanism of Ruthenium(II) Amino Acid Complexes in Sarcoma-180 Tumor Cells” (PLoS ONE, 2014)

Experiments:
caspase-9 = experiment: Caspase activity colorimetric assay (LEHD-pNA); type: cell-based, murine; settings: S180 cells, 40 µM, 24 h; control 100%
Protocol: (§1) Direct measurement of the activity of caspases 3, 8, and 9 were performed using the ApoTarget Caspase 3, 8, and 9 Protease Assay (Invitrogen) according to the manufacturer's recommendations. After treatment with complex 2 (40 µM and 60 µM) for 24 h, the cells were lysed with chilled cell lysis buffer. The protein concentration was then measured using the BSA Protein Assay Kit (BioRad). An aliquot of the protein extract (75 µg) was mixed with 50 µL of 2X reaction buffer supplemented with 10 mM DTT and the substrates of DEVD-pNA (caspase-3), IETD-pNA (caspase-8), or LEHD-pNA (caspase-9). The mixtures were then incubated for 2 h at 37°C. Subsequently, the formation of p-nitroanilide in the samples was measured using an ELISA microplate reader at 405 nm. The increases in the activities of caspase-3, caspase-8, and caspase-9 were determined by comparing the results with the control.

S180 tumor cells = experiment: MTT cell viability assay, S180 tumor cells; type: cell-based, murine; settings: S180 tumor cell line, 48 h
Protocol: (§2) The murine sarcoma-180 tumor cells (S180) (ATCC# TIB-66) and normal murine fibroblast cells (L-929) (ATCC# CCL-1) were cultured in suspension in RPMI 1640 and DMEM media (Sigma Chemical Co., MO), respectively, supplemented with 10% fetal calf serum, 100 µg/mL penicillin, and 100 µg/mL streptomycin. The cultures were incubated in a humidified incubator (Thermo Scientific) at 37°C with 5% CO2.
(§3) The cytotoxic effects of the amino acid ruthenium complexes were evaluated using an MTT assay with S180 tumor cells and L929 normal cells as described previously. Briefly, 1.0×10^5 S180 cells and 2.0×10^4 L929 cells were plated in 96-well tissue culture plates and treated with different concentrations of amino acid ruthenium complexes (0.2–200 µM) for 48 h. After treatment, 10 µL of MTT (5 mg mL^−1) was added to each well, and the plates were incubated at 37°C for an additional 3 h. The purple formazan crystals were dissolved in 50 µL of SDS, and the absorbance was determined at 545 nm using a Stat Fax 2100 microplate reader (Awareness Technology, Palm City, FL, USA). The cell viability was calculated as follows: viability (%) = (absorbance of the treated wells)/(absorbance of the control wells) ×100. The IC50 (complex concentration (µM) that results in a 50% reduction in cellular viability) was obtained from dose-response curves using GraphPad Prism 4.02 for Windows (GraphPad Software, San Diego, CA, USA).

caspase 8 = experiment: Real-time RT-PCR gene expression, caspase 8; type: cell-based, murine; settings: S180 cells, 40 µM, 6 h; p>0.05
Protocol: (§4) The S180 cells were treated with 40 µM complex 2 for 6 h. Total RNA was extracted with Trizol reagent (Sigma-Aldrich, USA) following the manufacturer's protocol. Total RNA (2.0 µg) was used to produce complementary DNA (cDNA) with random primers (Applied Biosystems, USA) in a 20 µL reaction mixture according to the manufacturer's protocol.
(§5) Real-time PCR was carried out using a Line Gene K (Bioer Technology) instrument. Real-time PCR reactions were carried out in a 20 µL reaction mixture, including 2 µL of cDNA, 10 µL of SYBR Green PCR Master Mix (LGC Biotechnology, UK), and 2.0 µL of 400 nM forward and reverse primers. The PCR program was initiated at 95°C for 15 min followed by 40 cycles of 95°C for 15 s, 55°C for 15 s, and 72°C for 30 s. The data were analyzed according to the comparative Ct method and were normalized to the β-actin reference gene expression in each sample.

caspase 3 = experiment: Real-time RT-PCR gene expression, caspase 3; type: cell-based, murine; settings: S180 cells, 40 µM, 6 h; normalized to β-actin
Protocol: as §4, §5

p53 = experiment: Real-time RT-PCR gene expression, p53; type: cell-based, murine; settings: S180 cells, 40 µM, 6 h; p>0.05
Protocol: as §4, §5

S180 cells = experiment: Mitochondrial membrane potential, JC-1 flow cytometry; type: cell-based, murine; settings: 24 h; for percentage of cells with depolarized mitochondria: control 11.5%; for percentage of cells showing red fluorescence (upper-right quadrant): control 88.5%
Protocol: The effect of complex 2 on the mitochondrial membrane potential (ΔΨm) was measured using JC-1 dye (BD Biosciences) by flow cytometry according to the manufacturer's instructions. Briefly, 3.0×10^5 S180 cells were treated with complex 2 (40 µM and 60 µM) for 24 h. After incubation, the cells were harvested and washed with PBS. The cells were then incubated with JC-1 dye (BD Biosciences) for 15 min at 37°C in the dark. The stained cells were washed, resuspended in assay buffer, and immediately analyzed by flow cytometry. The data were analyzed using the Cell Quest software.

pBR322 plasmid DNA = experiment: Atomic force microscopy of plasmid DNA; type: binding; settings: incubated 24 h at 37°C
Protocol: For the atomic force microscopy (TMAFM) experiment, the pBR322 plasmid was heated at 60°C for 10 minutes to obtain the OC form. The concentration of the stock solution was 1 mg/mL in HEPES buffer (4 mM HEPES (pH 7.4) and 2 mM MgCl2. Each sample contained 1 µL of pBR322 plasmid at a concentration of 0.25 µg/µL in a final volume of 40 µL. The amount of complex 2 added is expressed as ri. AFM samples were prepared by casting a 3 µL drop of test solution onto freshly cleaved muscovite green mica disks as the support. The drop was allowed to stand undisturbed for 3 minutes to favor the adsorbate-substrate interaction. Each DNA-laden disk was rinsed with Milli-Q water and was blown dry with clean compressed argon gas directed normal to the disk surface. The samples were stored over silica prior to AFM imaging. All AFM observations were made with a Nanoscope III Multimode AFM (Digital Instruments, Santa Barbara, CA). Nanocrystalline Si cantilevers ([…] in length) with an average spring constant of 50 N/m terminating in conical-shaped Si probe tips (10 nm apical radius and cone angle of 35°) were utilized. High-resolution topographic AFM images of 2×2 µm areas of different specimens were obtained in air at room temperature (relative humidity <40%). The AFM was operated in intermittent contact mode at a rate of 1–3 Hz.

caspase 9 = experiment: Real-time RT-PCR gene expression, caspase 9; type: cell-based, murine; settings: S180 cells, 40 µM, 6 h; normalized to β-actin
Protocol: as §4, §5

bax = experiment: Real-time RT-PCR gene expression, bax; type: cell-based, murine; settings: S180 cells, 40 µM, 6 h; normalized to β-actin
Protocol: as §4, §5

L929 normal cells = experiment: MTT cell viability assay, L929 normal cells; type: cell-based, murine; settings: L929 normal cell line, 48 h
Protocol: as §2, §3

caspase-3 = experiment: Caspase activity colorimetric assay (DEVD-pNA); type: cell-based, murine; settings: S180 cells, 24 h, control 100%
Protocol: as §1

F[P-](F)(F)(F)(F)F.NCC(=O)[O-].[Ru+2].c1ccc(-c2ccccn2)nc1.c1ccc(P(CCCCP(c2ccccc2)c2ccccc2)c2ccccc2)cc1 [Complex 2, [Ru(gly)(bipy)(dppb)]PF6]
activity of caspase-9 (caspase-9): 176.43% | IC50 (S180 tumor cells): 31.2 ± 4.19 µM | expression level of caspase 8 compared with control (caspase 8): remained unchanged | expression level of caspase 3 compared to control (caspase 3): 2.55 fold | expression level of p53 compared with control (p53): remained unchanged | percentage of cells with depolarized mitochondria (S180 cells; 40 µM): 45.2% | percentage of cells showing red fluorescence (upper-right quadrant) (S180 cells; 40 µM): 54.3% | percentage of cells with depolarized mitochondria (S180 cells; 60 µM): 52.6% | percentage of cells showing red fluorescence (upper-right quadrant) (S180 cells; 60 µM): 47.1% | interaction with pBR322 plasmid DNA (AFM images) (pBR322 plasmid DNA): did not covalently bind to DNA bases or intercalate between bases | expression level of caspase 9 compared to control (caspase 9): 1.83 fold | expression level of the bax gene compared to untreated control (bax): 2.75 fold | IC50 (L929 normal cells): 51.6 ± 1.22 µM | activity of caspase-3 (caspase-3; 40 µM): 136.05% | activity of caspase-3 (caspase-3; 60 µM): 170.24%
